Measurements from ChEMBL document CHEMBL1201862, “PubChem BioAssay data set” (2004).
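Five compound concentrations were applied to cells in 96-well plates for 48 hours; endpoints were derived by simple linear interpolation of the resulting dose-response curve. GI50: concentration for 50% inhibition of growth.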 The source made the active and inactive calls. Rule as the data show it: active = GI50 up to about 1.1 µM and inactive = higher.

Assays:
Test in all cases: DTP human tumour cell line panel, 48 h
A549 = test system: A549
UO-31 = test system: UO-31
NCI-H23 = test system: NCI-H23
TK-10 = test system: TK-10
UACC-62 = test system: UACC-62
OVCAR-5 = test system: OVCAR-5
SF-268 = test system: SF-268
NCI-H460 = test system: NCI-H460
U-251 = test system: U-251
IGROV-1 = test system: IGROV-1
SF-539 = test system: SF-539
KM12 = test system: KM12
SW-620 = test system: SW-620
OVCAR-3 = test system: OVCAR-3
K562 = test system: K562
SNB-19 = test system: SNB-19
SK-OV-3 = test system: SK-OV-3
SK-MEL-5 = test system: SK-MEL-5
HT-29 = test system: HT-29
COLO 205 = test system: COLO 205

Measured: GI50

Cc1cc(C)c(S(=O)(=O)N(CCCCN)OCCCN)c(C)c1
inactive: A549 19.3 µM | UO-31 17.5 µM | NCI-H23 26.9 µM | TK-10 18 µM | UACC-62 16.4 µM | OVCAR-5 19.5 µM | SF-268 18.4 µM | NCI-H460 19 µM | U-251 15.4 µM | IGROV-1 13.6 µM | SF-539 21.8 µM | KM12 19.5 µM | SW-620 17.9 µM | OVCAR-3 18.4 µM | K562 13.9 µM | SNB-19 19.6 µM | SK-OV-3 16.8 µM | SK-MEL-5 23.7 µM | HT-29 14.3 µM | COLO 205 9.04 µM
